Columns and labels:
MCF7/HER2 cells = test: MCF-7/HER-2 SRB Growth Assay; format: cell-based; details: Homo sapiens, read-out: Growth Data: MC7/HER2 (0.5% FBS)
Text: The following examples illustrate the ability of the exemplary compounds to inhibit receptor tyrosine kinases, such as HER2 and/or EGFR. The following target cells were used for cellular kinase assays: NIH3T3 clone C7 (Honegger et al., supra) engineered to over-express human EGF receptor; NIH3T3 cells engineered to over-express a chimeric receptor containing the EGFR extracellular domain and the HER2 intracellular kinase domain; the human mammary carcinoma line BT474 (ATCC HTB2) expressing HER2; and the human glioblastoma line U1242 that expresses PDGFR-beta. Growth assays were carried out using human mammary epithelial SKBR3 (ATCC HTB30) cells (SKBR3 cells over-express HER2), SKOV3 (ATCC HTB77) human ovarian cancer cell line (SKOV3 cells also over-express HER2), A431 cells (A431 cells over-express EGFR) MCF7 human breast carcinoma cells, MCF7 cells overexpressing the HER2 kinase (MCF7-HER2), NIH3T3 cells, and NIH3T3 cells overexpressing the HER2 kinase (3T3-HER2.
MCF-7/HER-2 SRB Growth Assay
The protocol is basically the same as that above (for the MCF-7 Growth Assay) except that immediately before the 30 compound is added, the normal growth media is removed and 0.5% FBS/RPMI supplemented with 2 mM Glutamine is added onto the cells. The compound is also prepared in this 0.5% serum media. The plate of cells is incubated for four days and developed as usual.

IGF-1R = target: T1, IGF-1R (Homo sapiens, UniProt P08069); test: Cellular IGF-1 Receptor ELISA; format: cell-based; details: 3T3/IGF-1R cells, 20 nM IGF-1
T1 construct: expressed in transfected cells; host or cells: 3T3/IGF-1R (mouse NIH 3T3 line overexpressing IGF-1R)
Description: Cellular IGF-1 Receptor ELISA (Version I)
(1). The cell line used in this assay is 3T3/IGF-1R, a cell line which overexpresses IGF-1 Receptor.
(2). 3T3/IGF-1R is grown in an incubator with 5% CO2 at 37° C. The growth media is DMEM+10% FBS (heat inactivated)+2mM L-Glutamine.
(3). For ELISA plate coating, the anti-IGF-1R antibody named 17-69 is used. Antibodies are purified by the Enzymology Lab, SUGEN, Inc.
(10). Insulin-like growth factor-1 from Promega (Cat# G5111).
(11). Polyclonal antiserum Anti-phosphotyrosine:
(1). The cells, grown in tissue culture dish (10 cm, Corning 25020-100) to 80-90% confluence, are harvested with Trypsin-EDTA (0.25%, 0.5 ml/D-100, GIBCO).
(2). Resuspend the cells in fresh DMEM +10% FBS+2 mM L-Glutamine, and transfer to 96-well tissue culture plate (Corning, 25806-96) at 20,000 cells/well (100 ul/well). Incubate for 1 day then replace medium to serum-free medium (90/ul) and incubate in 5% CO2 and 37° C. overnight.
(1). Coat the ELISA plate (Corning 25805-96) with Anti-IGF-1R Antibody at 0.5 ug/well in 100 ul PBS at least 2 hours. (2). Remove the coating solution, and replace with 100 ul Blocking Buffer, and shake for 30 minutes. Remove the blocking buffer and wash the plate just before adding lysate.
(1). The drugs are tested in serum-free condition.
(2). Dilute drug stock (in 100% DMSO) 1:10 with DMEM in 96-well poly-propylene plate, and transfer 10 ul/well of this solution to the cells to achieve final drug dilution 1:100, and final DMSO concentration of 1.0%. Incubate the cells in 5% CO2 at 37° C. for 2 hours.
(3). Prepare fresh cell lysis buffer (HNTG HNTG 2 ml EDTA 0.1 ml Na3VO4 0.1 ml Na4P2O7 0.1 ml H20 7.3 ml HNTG* 10 ml.
(4). After drug incubation for two hours, transfer 10 ul/well of 200nM IGF-1 Ligand in PBS to the cells (Final Conc=20 nM), and incubate at 5% CO2 at 37° C. for 10 minutes.
(5). Remove media and add 100 ul/well HNTG* and shake for 10 minutes. Look at cells under microscope to see if they are adequately lysed.
(6). Use a 12-channel pipette to scrape the cells from the plate, and homogenize the lysate by repeat aspiration and dispense. Transfer all the lysate to the antibody coated ELISA plate [V.2.(2)], and shake for 1 hour.
(7). Remove the lysate, wash the plate, transfer anti-pTyr (1:3,000 with TBST) 100 ul/well, and shake for 30 minutes.
(7). Remove anti-pTyr, wash the plate, transfer detection antibody (1:3,000 with TBST) 100 ul/well, and shake for 30 minutes.
(8). Remove detection antibody, wash the plate, and transfer fresh ABTS/H2O2 (1.2 ul H2O2 to 10 ml ABTS) 100 ul/well to the plate to start color development.
(9). Measure OD (410 nm) in Dynatec MR5000, which is connected to Ingres.

T1 sequence (P08069 741-1367 limits assumed): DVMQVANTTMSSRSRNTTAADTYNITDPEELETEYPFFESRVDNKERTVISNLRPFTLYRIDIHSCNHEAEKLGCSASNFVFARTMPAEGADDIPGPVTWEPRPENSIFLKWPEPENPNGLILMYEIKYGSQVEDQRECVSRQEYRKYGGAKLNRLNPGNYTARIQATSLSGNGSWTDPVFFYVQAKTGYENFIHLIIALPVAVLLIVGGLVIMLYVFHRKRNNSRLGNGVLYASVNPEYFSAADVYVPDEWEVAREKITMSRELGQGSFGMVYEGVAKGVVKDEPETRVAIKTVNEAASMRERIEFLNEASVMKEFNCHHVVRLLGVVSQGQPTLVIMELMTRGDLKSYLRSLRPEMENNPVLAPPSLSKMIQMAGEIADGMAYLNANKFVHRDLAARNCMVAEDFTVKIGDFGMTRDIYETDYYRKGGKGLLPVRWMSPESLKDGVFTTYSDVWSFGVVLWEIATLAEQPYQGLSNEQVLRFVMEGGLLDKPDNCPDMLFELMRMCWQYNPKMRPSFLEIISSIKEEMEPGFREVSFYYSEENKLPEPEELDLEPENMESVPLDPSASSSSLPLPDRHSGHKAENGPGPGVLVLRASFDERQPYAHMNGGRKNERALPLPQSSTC
T1 sequence (P08069 31-736 partner limits assumed): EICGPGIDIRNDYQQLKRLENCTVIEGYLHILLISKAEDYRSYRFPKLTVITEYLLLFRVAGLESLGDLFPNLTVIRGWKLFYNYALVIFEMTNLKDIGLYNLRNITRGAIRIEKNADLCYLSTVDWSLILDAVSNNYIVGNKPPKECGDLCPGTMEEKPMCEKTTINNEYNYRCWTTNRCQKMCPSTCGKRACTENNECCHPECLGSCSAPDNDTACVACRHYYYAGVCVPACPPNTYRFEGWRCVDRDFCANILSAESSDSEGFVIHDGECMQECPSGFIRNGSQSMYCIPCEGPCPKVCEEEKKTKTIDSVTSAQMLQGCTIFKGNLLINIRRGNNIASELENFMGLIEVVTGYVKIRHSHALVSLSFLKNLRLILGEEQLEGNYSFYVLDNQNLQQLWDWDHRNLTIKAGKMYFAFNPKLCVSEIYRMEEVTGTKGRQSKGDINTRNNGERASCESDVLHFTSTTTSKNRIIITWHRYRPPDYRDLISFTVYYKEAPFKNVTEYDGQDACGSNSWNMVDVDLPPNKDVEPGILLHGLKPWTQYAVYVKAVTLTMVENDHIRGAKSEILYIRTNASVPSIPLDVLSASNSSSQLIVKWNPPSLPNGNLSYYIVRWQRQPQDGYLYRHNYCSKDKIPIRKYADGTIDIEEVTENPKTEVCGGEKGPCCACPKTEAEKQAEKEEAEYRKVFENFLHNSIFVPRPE

Row | Compound | IC50 (MCF7/HER2 cells) | IC50 (IGF-1R)
1 | N#C/C(=C\c1ccc(O)cc1Cl)S(=O)(=O)NCc1ccccc1 [Compound 733] | 16 µM | > 100 µM
2 | N#C/C(=C\c1ccc(O)cc1Cl)S(=O)(=O)NCCCc1ccccc1 [Compound 734] | 7 µM | 93.9 µM
3 | CC(C)(C)c1cc(/C=C(\C#N)S(=O)(=O)Cc2cccc(C(F)(F)F)c2)cc(C(C)(C)C)c1O [Compound 735] | 0.5 µM | > 100 µM
4 | CC(C)c1cc(/C=C(\C#N)S(=O)(=O)c2ccsc2)cc(C(C)C)c1O [Compound 738] | 3 µM | > 100 µM
5 | Cc1cc(/C=C(\C#N)S(=O)(=O)Cc2cccc(C(F)(F)F)c2)cc(C)c1O [Compound 739] | 14 µM | > 100 µM
6 | CC(C)(C)c1cc(/C=C(\C#N)S(=O)(=O)c2ccc(F)cc2)cc(C(C)(C)C)c1O [Compound 740] | 0.007 µM | > 100 µM
7 | CC(C)(C)c1cc(/C=C(\C#N)S(=O)(=O)c2cccs2)cc(C(C)(C)C)c1O [Compound 742] | 0.2 µM | > 100 µM
8 | N#C/C(=C\c1ccc(O)c(O)c1)S(=O)(=O)c1cccs1 [Compound 743, (E)-3-(3,4-Dihydroxyphenyl)-2-[(thien-2-yl)sulfonyl]acrylonitrile] | – | > 100 µM
9 | Cc1cc(/C=C(\C#N)S(=O)(=O)c2ccc(F)cc2)cc(C)c1O [Compound 744] | 46 µM | > 100 µM
10 | CC(C)(C)c1cc(/C=C(\C#N)S(=O)(=O)c2ccsc2)cc(C(C)(C)C)c1O [Compound 746] | 0.3 µM | > 100 µM
11 | CC(C)c1cc(/C=C(\C#N)S(=O)(=O)c2ccccn2)cc(C(C)C)c1O [Compound 747] | 26 µM | > 100 µM
12 | Cc1cc(/C=C(\C#N)S(=O)(=O)c2ccccc2)cc(C)c1O [Compound 748] | 46 µM | > 100 µM

Other lines, results leading:

Row | IC50 (MCF7/HER2 cells) | IC50 (IGF-1R) | Compound
13 | 1 µM | 29.2 µM | CC(C)c1cc(/C=C(\C#N)S(=O)(=O)c2ccccc2)cc(C(C)C)c1O [Compound 731]
14 | 2.5 µM | 11.8 µM | CC(C)c1cc(/C=C(\C#N)S(=O)(=O)NCc2ccccc2)cc(C(C)C)c1O [Compound 732]
15 | 1 µM | 19 µM | CC(C)c1cc(/C=C(\C#N)S(=O)(=O)Cc2cccc(C(F)(F)F)c2)cc(C(C)C)c1O [Compound 736]
16 | 3 µM | 93.5 µM | CC(C)c1cc(/C=C(\C#N)S(=O)(=O)c2cccs2)cc(C(C)C)c1O [Compound 737]
17 | 1 µM | 28.3 µM | CC(C)c1cc(/C=C(\C#N)S(=O)(=O)c2ccc(F)cc2)cc(C(C)C)c1O [Compound 741, (E)-3-(3,5-Diisopropyl-4-hydroxyphenyl)-2-(4-fluorophenylsulfonyl)acrylonitrile]
18 | – | 69 µM | CC(C)c1cc(/C=C(\C#N)S(=O)(=O)/C(C#N)=C/c2cc(C(C)C)c(O)c(C(C)C)c2)cc(C(C)C)c1O [Compound 745]
